Converted amounts (≈) assume the structure as drawn. Where two headings read alike, the source gives them in different places.
Legend:
mESCs [1] = system: mESCs; design: method as in PMID 14761682; conditions: mESC-EST, cell viability; previously obtained in the authors' lab; cited from earlier work
[2] = maximum plasma concentration, human exposure; cited from earlier work
3T3 fibroblast cells = system: 3T3 fibroblast cells; design: method as in PMID 14761682; conditions: mESC-EST, 3T3 viability; previously obtained in the authors' lab; cited from earlier work
mESCs [3] = system: mESCs; design: method as in PMID 14761682; conditions: mESC-EST, inhibition of differentiation; previously obtained in the authors' lab; cited from earlier work
mESCs [4] = system: mESCs; design: method as in PMID 14761682, PMID 21720311; conditions: EST prediction model; cited from earlier work
[5] = system: RIV9 hiPSC-derived cardiomyocytes; experiment: hiPSC-EST cardiac contractile assay (count of contracting cardiomyocyte clusters); type: cell-based, human; conditions: for hiPSC ID50: day 25, 50% inhibition of functional (contracting) cardiomyocytes vs control; for doses with reduced contractile activity / incidence: Figure 3
Method: The hiPSC cell line RIV9 was obtained from the Stem Cell Core at the University of California, Riverside. hiPSCs were seeded on Matrigel (Corning, Glendale, AZ, USA)-coated tissue culture plates and maintained in a pluripotent state in mTeSR® medium (Stem Cell Technologies, Seattle, WA, USA). Cells were cultured under a humidified atmosphere of 5% CO2 at 37 °C and passaged for maintenance or to seed for experiments approximately every 5 days as previously described.
After cells reached 70% confluency (designated day 0), the medium was changed to control differentiation medium supplemented with 0.06 mg/mL ascorbic acid (Sigma-Aldrich, St. Louis, MO, USA) to induce cardiac differentiation. Control differentiation medium was comprised of Dulbecco’s modified Eagle’s medium (DMEM with 4.5 g/L glucose, L-glutamine and sodium pyruvate; Corning) supplemented with 18% FBS (PAA), 0.8% penicillin/streptomycin (10,000 units/10,000 units, Gibco, ThermoFisher Scientific, Grand Island, NY, USA), 0.12% non-essential amino acids (NEAA; Gibco), and 0.1 mM β-mercaptoethanol (Gibco). Cultures were cultured in differentiation media for 25 days, starting from day 0.
(§1) 5-flurorouracil (5-FU), all-trans retinoic acid (atRA), and penicillin G (PenG) were selected from a subset of chemicals used in the original EST validation study. 5-FU and atRA were selected as positive test compounds due to their established embryotoxic potential while PenG was used as a negative control. All chemicals were purchased from Sigma. Stock solutions were prepared in DMSO and filtered through a 0.2 micron Acrodisc® PSF Syringe Filter (Pall Corporation, Port Washington, NY, USA), aliquoted into sterile microcentrifuge tubes and stored at −20 °C until use. Test chemicals were serially diluted to final concentrations in differentiation media. Cardiogenic cultures were treated with designated chemicals (or solvent only) through day 25 of differentiation and hFF cultures were treated with each compound for a 25 day duration period. Compounds were replenished with each medium change.
(§2) A University of Kentucky smoking machine was used to produce smoke extract solutions from commercially available conventional Marlboro Red 100 brand cigarettes as previously described. The smoking machine took a 2.2 s puff of mainstream (MS) smoke every minute. Smoke solution concentrations were made in puff equivalents (PE), which are the number of cigarette puffs dissolved in 1 mL of medium. MS smoke solutions were produced by pulling 30 puffs of MS smoke through 10 mL of DMEM. Resulting 3 PE smoke extracts were filtered through a 0.2 micron Acrodisc® PSF Syringe Filter (Pall Corporation, Port Washington, NY, USA), aliquoted into sterile microcentrifuge tubes, and stored at −80 °C until use. Serial dilutions were performed in differentiation medium to reach desired final exposure concentrations. Cardiogenic cultures were treated with smoke solutions through 25 days of differentiation. Smoke solutions were replenished with each medium change.
A 10% (w/v) Camel Snus extract was prepared as previously described. Ten grams of Snus was added to 85 mL of DMEM and allowed to incubate at 37 °C for 2 h. This initial extract solution was centrifuged for 10 min at 4500× g. Supernatant from the first round of centrifugation was then centrifuged again at 13,000× g for 1 h. The resulting supernatant was collected and pH adjusted to 7.4. 15 mL of FBS was added to the pH-adjusted Snus extract to produce a 10% stock solution of Snus tobacco extract (STE). The stock solution was then sterile-filtered with a 0.22 μm vacuum filter system. STE was aliquoted into sterile microcentrifuge tubes and stored at −80 °C until use. Serial dilutions were performed in differentiation medium to reach desired final exposure concentrations. Cardiogenic cultures were treated with STE through 25 days of differentiation. STE was replenished with each medium change. […]

[6] = system: differentiating hiPSCs (hiPSC-cardiomyocytes); experiment: hiPSC-EST cardiac viability assay (MTT); type: cell-based, human; conditions: for IC50: Homo sapiens, 600 h
Method: as §1, §2
A 10% (w/v) Camel Snus extract was prepared as previously described. Ten grams of Snus was added to 85 mL of DMEM and allowed to incubate at 37 °C for 2 h. This initial extract solution was centrifuged for 10 min at 4500× g. Supernatant from the first round of centrifugation was then centrifuged again at 13,000× g for 1 h. The resulting supernatant was collected and pH adjusted to 7.4. 15 mL of FBS was added to the pH-adjusted Snus extract to produce a 10% stock solution of Snus tobacco extract (STE). The stock solution was then sterile-filtered with a 0.22 μm vacuum filter system. STE was aliquoted into sterile microcentrifuge tubes and stored at −80 °C until use. Serial dilutions were performed in differentiation medium to reach desired final exposure concentrations. Cardiogenic cultures were treated with STE through 25 days of differentiation. STE was replenished with each medium change.
Cardiomyocyte survival following concurrent exposure to each compound was evaluated by 3-[4,5-dimethylthiazol-2-yl]-2,5-diphenylterazolium bromide (MTT) assay from three independent differentiations each carried out in technical quintuplicate as previously described. On day 25 of differentiation, cells were incubated with MTT (5 mg/mL) for 2 h at 37 °C. MTT supernatant was removed and replaced with a desorb solution of 0.7% SDS in 2-propanol. The absorbance of the solution was measured at 570 nm in an iMark™ microplate reader (Bio-Rad) with 655 nm as a reference wavelength. Here, mitochondrial dehydrogenase activity on the MTT in solution is directly proportional to a blue-purple product that is detected at 570 nm.
Half-maximal inhibitory compound doses of differentiation (ID50) and cytotoxicity (IC50) were determined from concentration-response curves using GraphPad Prism.

[7] = read-out: hiPSC IC50, day 25, MTT, 50% inhibition of viable cells vs control
[8] = day 25, MTT, 50% inhibition of viable cells vs control

## O=c1[nH]cc(F)c(=O)[nH]1 [5-Fluorouracil, 5-fluorouracil]
mESCs [1]
  mESCs IC50: 22 ng/mL
[2]
  Cmax: 0.94 [13] μg/mL
3T3 fibroblast cells
  mESCs 3T3 IC50: 0.05 µg/mL
mESCs [3]
  mESCs ID50: 0.0097 µg/mL
mESCs [4]
  mESC Biostatistical Embryotoxicity Classification: Strongly embryotoxic
[5]; by day 20, Figure 2
  concentrations that negatively impacted the formation of contractile structures: above 1 × 10^−6 μg/mL
[5]
  hiPSC ID50: 0.00229 ng/mL
[6]; [7]
  IC50: 4.7e-05 µg/mL (≈ 0.000361 µM)
[6]; MTT, Figure 4A
  concentrations with reductions in hiPSC cell viability: above 1 × 10^−6 μg/mL
[6]; [8]
  hiPSC IC50: 4.726e-05 µg/mL

## CC1=C(/C=C/C(C)=C/C=C/C(C)=C/C(=O)O)C(C)(C)CCC1 [All-Trans Retinoic Acid, all-trans retinoic acid]
mESCs [1]
  mESCs IC50: 0.09 ng/mL
[2]
  Cmax: 0.155–0.294 [13] μg/mL
3T3 fibroblast cells
  mESCs 3T3 IC50: 2.7 µg/mL
mESCs [3]
  mESCs ID50: 0.0017 µg/mL
mESCs [4]
  mESC Biostatistical Embryotoxicity Classification: Strongly embryotoxic
[5]; 1 × 10^−8 μg/mL
  increase in contractile cluster incidence: ~2 fold
[5]; Figure 2
  concentrations at which cells failed to form contractile clusters: above 1 × 10^−3 μg/mL
[5]
  doses with reduced contractile activity / incidence: above 1 × 10^−8 μg/mL
  hiPSC ID50: 0.000933 ng/mL
[6]; day 25, MTT, 50% inhibition of viable cells vs control, read-out: hiPSC IC50
  IC50: 3.64 µg/mL (≈ 12.1 µM)

## CC1(C)S[C@@H]2[C@H](NC(=O)Cc3ccccc3)C(=O)N2[C@H]1C(=O)O [Penicillin G, penicillin G]
mESCs [1]
  mESCs IC50: 800000 ng/mL
[2]
  Cmax: 134.6 [12] μg/mL
3T3 fibroblast cells
  mESCs 3T3 IC50: 1000 µg/mL
mESCs [3]
  mESCs ID50: 750 µg/mL
mESCs [4]
  mESC Biostatistical Embryotoxicity Classification: Not embryotoxic
[5]
  effect on formation of contractile structures: did not inhibit the formation of contractile structures
  doses with reduced contractile activity / incidence: > 700 µg/mL
  hiPSC ID50: 739900 ng/mL
[6]; [7]
  IC50: < 1000 µg/mL
[6]; [8]
  hiPSC IC50: >1000 µg/mL
[6]; tested concentration range
  effect on hiPSC cell viability: did not find any reduced cell survival
